{
  "source": "patent US11957699B2",
  "about": "“Composition comprising punicalagin for inhibiting PAR2 activity” (INDUSTRY-ACADEMIC COOPERATION FOUNDATION, YONSEI UNIVERSITY, priority 2018, dated 2024)",
  "key": {"[1]": {"tested_on": "conjunctival epithelial cells", "assay": "IL-6 secretion by house dust mite (HDM) in conjunctival epithelial cells (enzyme immunoassay)", "assay_type": "cell-based, human", "settings": "10 μg/mL HDM 24 hours", "experimental": "Next, conjunctival epithelial cells showing a high response to the concentration increase of intracellular calcium ions by HDM and PAR2-AP were treated with 1, 3, and 10 μM punicalagin, and after treating with 10 μg/mL HDM for 24 hours, secreted IL-6 cytokines were measured by enzyme immunoassay. As a result, it was confirmed that 1, 3, and 10 μM punicalagin inhibited about 50, 91, and 93% of IL-6 cytokines that were increased by HDM, respectively (panel C of FIG. 5)."}, "[2]": {"tested_on": "C57BL6N mice with colitis induced by DSS", "assay": "Colitis induced by dextran sodium sulfate (DSS) in mice", "assay_type": "in vivo", "experimental": "In 7-week-old C57BL6N mice, it was confirmed whether punicalagin has an effect of alleviating symptoms of colitis induced by dextran sodium sulfate (DSS).\nSpecifically, while dextran sodium sulfate (DSS), which is a colitis-causing substance, was diluted in water at 2.5% and was fed to the mice for 9 days, 1 mg/kg (n=4), 3 mg/kg (n=4), or 10 mg/kg (n=5) punicalagin was dissolved in physiological saline and intraperitoneally injected once every 48 hours, and the mice were weighed once a day. As control groups, a group which was fed only with 2.5% DSS (n=4), a group which was not fed with DSS and was not injected with punicalagin (n=3), and a group which was not fed with DSS and was injected with punicalagin at 10 mg/kg (n=3) were established, and weight changes, tissue damage, proinflammatory cytokine concentrations, and the like were measured."}, "[3]": {"tested_on": "heart, liver, and lung tissues of lupus mice", "assay": "Histology (hematoxylin-eosin) of heart, liver and lung of lupus mice", "assay_type": "in vivo", "settings": "3 mg/kg, 1 mg/kg, and 0.3 mg/kg; vs saline or methylprednisolone groups", "experimental": "In order to determine the toxicity of punicalagin, the effect of NIH3T3 cells on cell viability and the weight change of 8-week-old wild-type mice were evaluated, and the heart, liver, and lung were extracted from 30-week-old lupus mice and were histologically evaluated by performing hematoxylin-eosin staining."}, "[4]": {"settings": "rats, 6% punicalagin diet for 37 days; cited from earlier work"}, "PAR2 [5]": {"target": "T1, PAR2 (Homo sapiens, UniProt P55085)", "T1 sequence (P55085 26-397)": "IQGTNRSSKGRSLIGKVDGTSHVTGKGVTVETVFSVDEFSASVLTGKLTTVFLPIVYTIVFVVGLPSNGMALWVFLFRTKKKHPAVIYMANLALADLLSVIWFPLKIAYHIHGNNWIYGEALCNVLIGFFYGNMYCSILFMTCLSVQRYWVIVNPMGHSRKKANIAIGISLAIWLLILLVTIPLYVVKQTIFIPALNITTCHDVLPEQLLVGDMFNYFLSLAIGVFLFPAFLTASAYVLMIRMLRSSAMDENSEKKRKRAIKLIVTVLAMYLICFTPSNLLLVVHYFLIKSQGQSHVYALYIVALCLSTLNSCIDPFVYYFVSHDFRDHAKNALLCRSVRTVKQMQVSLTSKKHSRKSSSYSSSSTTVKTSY", "assay": "Intracellular calcium increase by house dust mite extract and PAR2-AP in primary cultured conjunctival epithelial cells", "assay_type": "cell-based", "design": "endogenous in cells", "settings": "10 μM, 10 μg/mL HDM extract, 100 μM PAR2-AP", "experimental": "In order to determine whether punicalagin has an effect of inhibiting cytokine secretion by house dust mites (HDM), after removing a culture medium of conjunctival epithelial cells that were primary cultured and differentiated in a transwell, 300 μL of the Flou4-NW dye mixture was added, and then, it was stabilized for 1 hour such that a Ca^2+ dye was loaded into the cells while blocking the light. Next, punicalagin was pretreated by concentration (0, 10, and 30 μM) for 10 minutes, and then, it was treated with a 10 μg/mL house dust mite extract (HDM extract). Afterwards, the concentration change of calcium ions (Ca^2+) was measured for 3 minutes at 1-second intervals, and 100 μM PAR2-AP was treated to measure whether punicalagin inhibited the concentration change of intracellular calcium ions by PAR2 receptor activation."}, "PAR2 [6]": {"target": "T1, PAR2", "assay": "Intracellular calcium increase by trypsin (PAR2 receptor activation) in HaCaT keratinocytes", "assay_type": "cell-based", "design": "endogenous in cells; host or cells: HaCaT keratinocytes", "experimental": "After keratinocytes (HaCaT) were cultured for 48 hours in a 96-well micro plate with the DMEM culture medium, the culture medium was removed, and then, 100 μL of the Flou4-NW dye mixture was added. While blocking the light, it was stabilized for 1 hour such that a calcium ion dye (Ca^2+ dye) was loaded into the cells. 100 μM punicalagin was treated, and the concentration change of intracellular calcium ions was measured for 5 minutes (panel A of FIG. 17). Next, punicalin (0, 1, 3, 10, 20, 30, 100, and 300 μM) by concentration (panel B of FIG. 17) or punicalagin (0, 1, 3, 5, 10, 20, 30, and 100 μM) by concentration (panel C of FIG. 17) was treated for 10 minutes, and then, each well was treated with 0.1 μM trypsin to measure the concentration change of intracellular calcium ions according to PAR2 receptor activation."}, "PAR2 [7]": {"target": "T1, PAR2", "assay": "Specificity: intracellular calcium increase by trypsin, PAR1-AP, thrombin and ATP in HT-29 cells", "assay_type": "cell-based", "design": "endogenous in cells; host or cells: HT-29 colon cancer cells", "experimental": "After colon cancer cells (HT-29) were cultured for 48 hours in a 96-well micro plate with the RPMI1640 culture medium, the culture medium was removed, and then, 100 μL of the Flou4-NW dye mixture was added. While blocking the light, it was stabilized for 1 hour such that a calcium ion dye (Ca^2+ dye) was loaded into the cells. Next, punicalagin was pretreated by concentration (0, 0.3, 1, 3, 10, 30, and 100 μM) for 10 minutes, and by treating 100 nM trypsin, it was measured for about 70 seconds at 1-second intervals to determine whether the concentration changes of intracellular calcium ions by PAR2 activation were an inhibitory effect by punicalagin (panel A of FIG. 2). In the same manner as the above, after punicalagin was pretreated by concentration (0, 1, 3, 10, 30, 100, and 300 μM), by treating 100 μM PAR1-AP (panel B of FIG. 2), 10 unit/mL thrombin (panel C of FIG. 2), and 100 μM ATP (panel D of FIG. 2), the concentration changes in intracellular calcium ions were measured for 70 seconds at 1-second intervals in each case.\nIn addition, it was compared how much it inhibited an increase in the concentration of intracellular calcium ions by trypsin, PAR1-AP, PAR2-AP, thrombin, and ATP depending on the concentration of punicalagin."}, "[8]": {"settings": "1, 3 or 10 mg/kg intraperitoneally"}},
  "note": "pIC50: −log10 of the molar value.",
  "data": [
    {"smiles": "O=CC1OC(=O)c2cc(O)c(O)c(O)c2-c2c(cc(O)c(O)c2O)C(=O)OC1C1OC(=O)c2cc(O)c(O)c(O)c2-c2c(O)c(O)c3oc(=O)c4c(c(O)c(O)c5oc(=O)c2c3c54)-c2c(cc(O)c(O)c2O)C(=O)OCC1O", "note": "(stereo not shown) [punicalagin, 1,2,3,11,12,13-hexahydroxy-5,10-dioxo-8-[3,4,5,11,17,18,19,22,23,34,35-undecahydroxy-8,14,26,31-tetraoxo-9,13,25,32-tetraoxaheptacyclo[25.8.0.0^2,7.0^15,20.0^21,30.0^24,29.0^28,33]pentatnaconta-1(35),2,4,6,15,17,19,21,23,27,29,33-dodecaen-10-yl]-5,7,8,10-tetrahydrodibenzo[f,h][1,4]dioxecin-7-carbaldehyde]", "values": [
      {"measurement": "inhibition of IL-6 cytokines increased by HDM", "setting": "[1]; 1 μM", "result": "about 50%"},
      {"measurement": "inhibition of IL-6 cytokines increased by HDM", "setting": "[1]; 3 μM", "result": "~91", "unit": "%"},
      {"measurement": "inhibition of IL-6 cytokines increased by HDM", "setting": "[1]; 10 μM", "result": "~93", "unit": "%"},
      {"measurement": "colon tissue damage caused by DSS", "setting": "[2]; [8]", "result": "inhibited"},
      {"measurement": "concentration of proinflammatory cytokines increased by DSS", "setting": "[2]; [8]", "result": "significantly reduced"},
      {"measurement": "length of the colon reduced by DSS", "setting": "[2]; [8]", "result": "recovered"},
      {"measurement": "weight loss by DSS", "setting": "[2]; 1, 3 or 10 mg/kg intraperitoneally once every 48 hours, 2.5% DSS 9 days", "result": "inhibited weight loss by DSS in a concentration-dependent manner"},
      {"measurement": "histological difference in heart, liver, and lung tissues", "setting": "[3]", "result": "no histological difference"},
      {"measurement": "toxicity", "setting": "[4]", "result": "no toxicity"},
      {"measurement": "concentration increases of intracellular calcium ions by house dust mites and PAR2-AP", "setting": "PAR2 [5]", "result": "all inhibited"},
      {"measurement": "effect on the concentration of intracellular calcium ions in keratinocytes (without trypsin)", "setting": "PAR2 [6]; 100 μM, 5 minutes", "result": "no effect"},
      {"measurement": "inhibition of PAR2 receptor activity by trypsin", "setting": "PAR2 [6]; HaCaT, 0.1 μM trypsin, 10 minutes pretreatment", "result": "inhibited PAR2 receptor activity by trypsin in a concentration-dependent manner"},
      {"measurement": "pIC50", "setting": "PAR2 [6]; HaCaT, 0.1 μM trypsin, read-out: IC50, inhibition of the PAR2 receptor (calcium increase by trypsin)", "result": 5.28},
      {"measurement": "strength of PAR2 receptor inhibition compared to punicalin", "setting": "PAR2 [6]; HaCaT, trypsin", "result": "≥ 3.7", "unit": "times"},
      {"measurement": "inhibition of increase in concentration of intracellular calcium ions", "setting": "PAR2 [7]; 100 nM trypsin, 100 μM PAR1-AP, 10 unit/mL thrombin or 100 μM ATP, increasing punicalagin concentration", "result": "effect of inhibiting an increase in the concentration of calcium ions was also improved"},
      {"measurement": "selectivity for inhibition of PAR2 activity compared to ATP, thrombin, and PAR1-AP", "setting": "PAR2 [7]; calcium increase", "result": "≥ 10", "unit": "times"}
    ]}
  ]
}
